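Protocol summary: plate cells (96-well), add compound at 5 concentrations, incubate 48 h, interpolate endpoints linearly. The concentration for 50% growth inhibition is given as GI50.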 Calls of active or inactive are those of the source. Rule as the data show it: active = GI50 up to about 1.1 µM and inactive = higher.
Legend:
Test in all cases: growth of human tumour cells (NCI), 48 h
SF-539 = test system: SF-539
KM12 = test system: KM12
COLO 205 = test system: COLO 205
UACC-257 = test system: UACC-257
TK-10 = test system: TK-10
NCI-H226 = test system: NCI-H226
MDA-MB-231 = test system: MDA-MB-231
NCI/ADR-RES = test system: NCI/ADR-RES
SW-620 = test system: SW-620
MOLT-4 = test system: MOLT-4
SF-268 = test system: SF-268
CCRF-CEM = test system: CCRF-CEM
U-251 = test system: U-251
OVCAR-5 = test system: OVCAR-5
M14 = test system: M14
IGROV-1 = test system: IGROV-1
SNB-75 = test system: SNB-75
SK-MEL-2 = test system: SK-MEL-2

Row | Structure (SMILES) | GI50 (SF-539) | GI50 (KM12) | GI50 (COLO 205) | GI50 (UACC-257) | GI50 (TK-10) | GI50 (NCI-H226) | GI50 (MDA-MB-231) | GI50 (NCI/ADR-RES) | GI50 (SW-620) | GI50 (MOLT-4) | GI50 (SF-268) | GI50 (CCRF-CEM) | GI50 (U-251) | GI50 (OVCAR-5) | GI50 (M14) | GI50 (IGROV-1) | GI50 (SNB-75) | GI50 (SK-MEL-2)
1 | CC(=O)N1CC(C)(C)c2c(C)c(O)c(C)c(C)c21 | > 100 µM (inactive) | > 100 µM (inactive) | > 100 µM (inactive) | > 100 µM (inactive) | > 100 µM (inactive) | > 100 µM (inactive) | > 100 µM (inactive) | > 100 µM (inactive) | > 100 µM (inactive) | > 100 µM (inactive) | > 100 µM (inactive) | > 100 µM (inactive) | > 100 µM (inactive) | > 100 µM (inactive) | > 100 µM (inactive) | > 100 µM (inactive) | 54.5 µM (inactive) | –
2 | COc1cccc(-c2nc(O)c3ccccc3n2)c1 | 23.3 µM (inactive) | 25 µM (inactive) | 37.8 µM (inactive) | 21.7 µM (inactive) | 17.9 µM (inactive) | – | 25.3 µM (inactive) | 18.1 µM (inactive) | 32.9 µM (inactive) | 86.5 µM (inactive) | 19.4 µM (inactive) | > 10 µM (inactive) | 7.31 µM (inactive) | 39.4 µM (inactive) | 50.2 µM (inactive) | 24.5 µM (inactive) | – | 39.5 µM (inactive)
3 | O=C(/C=C/c1ccccc1)CCC1C(=O)NC(=S)NC1=O | > 100 µM (inactive) | – | > 100 µM (inactive) | > 100 µM (inactive) | – | > 100 µM (inactive) | > 100 µM (inactive) | > 100 µM (inactive) | > 100 µM (inactive) | > 100 µM (inactive) | > 100 µM (inactive) | – | > 100 µM (inactive) | > 100 µM (inactive) | > 100 µM (inactive) | – | – | > 100 µM (inactive)
4 | COc1ccc2[nH]c3c([N+](=O)[O-])ccc(NCCCN(C)C)c3/c(=N/CCCN(C)C)c2c1 | – | 1.08 µM (active) | – | > 10 µM (inactive) | 2.36 µM (inactive) | – | 1.5 µM (inactive) | – | 1.63 µM (inactive) | 0.31 µM (active) | 1.64 µM (inactive) | 0.448 µM (active) | – | – | > 10 µM (inactive) | 1.86 µM (inactive) | 1.84 µM (inactive) | –
5 | CC(=O)Oc1cc(Cl)c(C)c2c1[C@H]1CC[C@]3(C)[C@@H](OC(C)=O)CC[C@H]3[C@@H]1CC2 | > 100 µM (inactive) | > 100 µM (inactive) | – | > 100 µM (inactive) | > 100 µM (inactive) | > 100 µM (inactive) | > 100 µM (inactive) | > 100 µM (inactive) | > 100 µM (inactive) | 78.2 µM (inactive) | > 100 µM (inactive) | > 100 µM (inactive) | 94.2 µM (inactive) | > 100 µM (inactive) | > 100 µM (inactive) | > 100 µM (inactive) | > 100 µM (inactive) | –
6 | COc1c(O)cc2ccnc3c2c1N(C)C=C3 | – | > 100 µM (inactive) | 94.6 µM (inactive) | > 100 µM (inactive) | > 100 µM (inactive) | > 100 µM (inactive) | > 100 µM (inactive) | > 100 µM (inactive) | 86.1 µM (inactive) | 91.6 µM (inactive) | > 100 µM (inactive) | – | > 100 µM (inactive) | > 100 µM (inactive) | > 100 µM (inactive) | > 100 µM (inactive) | > 100 µM (inactive) | > 100 µM (inactive)
7 | Cc1cc2c(c(S(=O)(=O)c3ccccc3[N+](=O)[O-])c1)NCCC2 | > 100 µM (inactive) | 63.8 µM (inactive) | > 100 µM (inactive) | – | > 100 µM (inactive) | > 100 µM (inactive) | > 100 µM (inactive) | 50 µM (inactive) | > 100 µM (inactive) | – | 83.6 µM (inactive) | – | 83.9 µM (inactive) | > 100 µM (inactive) | 69.8 µM (inactive) | 95.7 µM (inactive) | > 100 µM (inactive) | 51.4 µM (inactive)
8 | NC(=S)N/N=C1\NC(=O)/C(=C/c2ccc3c(c2)OCO3)S1 | 35.1 µM (inactive) | 20.9 µM (inactive) | 26.3 µM (inactive) | 31.6 µM (inactive) | 40.8 µM (inactive) | 23.5 µM (inactive) | 25.8 µM (inactive) | 27.8 µM (inactive) | 31.8 µM (inactive) | 21.4 µM (inactive) | 31.7 µM (inactive) | – | 22.6 µM (inactive) | 24.2 µM (inactive) | 24.5 µM (inactive) | 17.1 µM (inactive) | 14.3 µM (inactive) | 27.2 µM (inactive)
9 | O=C1c2cscc2C(=O)c2c(OCc3ccccc3)ccc(OCc3ccccc3)c21 | > 100 µM (inactive) | > 100 µM (inactive) | > 100 µM (inactive) | > 100 µM (inactive) | > 100 µM (inactive) | > 100 µM (inactive) | > 100 µM (inactive) | > 100 µM (inactive) | > 100 µM (inactive) | > 100 µM (inactive) | > 100 µM (inactive) | 53.8 µM (inactive) | – | > 100 µM (inactive) | > 100 µM (inactive) | 83.2 µM (inactive) | 56 µM (inactive) | –
